# From ChEMBL document CHEMBL1201862, “PubChem BioAssay data set” (2004)
#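 Protocol summary: plate cells (96-well), add compound at 5 concentrations, incubate 48 h, interpolate endpoints linearly. The concentration for 50% growth inhibition is given as GI50.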 The source made the active and inactive calls. Cut-off read from the data, not from the text of the source: active = GI50 up to about 1.1 µM and inactive = higher.
# Columns and labels:
# Test in all cases: NCI-60 cell line screen, 48 h
# SN12C = system: SN12C
# SR = system: SR
# K562 = system: K562
# SK-MEL-28 = system: SK-MEL-28
# OVCAR-8 = system: OVCAR-8
# TK-10 = system: TK-10
# LOX IMVI = system: LOX IMVI
# HOP-62 = system: HOP-62
# SNB-75 = system: SNB-75
# CAKI-1 = system: CAKI-1
# HCT-116 = system: HCT-116
# HCC 2998 = system: HCC 2998
# SK-MEL-2 = system: SK-MEL-2
# HCT-15 = system: HCT-15
# NCI-H226 = system: NCI-H226
# Malme-3M = system: Malme-3M
# RPMI-8226 = system: RPMI-8226
# DU-145 = system: DU-145
# NCI/ADR-RES = system: NCI/ADR-RES
# PC-3 = system: PC-3
SMILES,GI50 (SN12C),GI50 (SR),GI50 (K562),GI50 (SK-MEL-28),GI50 (OVCAR-8),GI50 (TK-10),GI50 (LOX IMVI),GI50 (HOP-62),GI50 (SNB-75),GI50 (CAKI-1),GI50 (HCT-116),GI50 (HCC 2998),GI50 (SK-MEL-2),GI50 (HCT-15) [µM],GI50 (NCI-H226),GI50 (Malme-3M),GI50 (RPMI-8226),GI50 (DU-145),GI50 (NCI/ADR-RES),GI50 (PC-3)
COc1cc(/C=C2\C(=O)N(C(=O)Cc3ccccc3)N=C2C)ccc1O,> 100 µM (inactive),> 100 µM (inactive),> 100 µM (inactive),> 100 µM (inactive),> 100 µM (inactive),> 100 µM (inactive),> 100 µM (inactive),> 100 µM (inactive),> 100 µM (inactive),> 100 µM (inactive),> 100 µM (inactive),> 100 µM (inactive),> 100 µM (inactive),> 100,> 100 µM (inactive),> 100 µM (inactive),> 100 µM (inactive),–,–,–
O=C1CCCc2ccc3c(c21)CC1(Cc2cc4c(cc2C1)CCCC4)C3,19.1 µM (inactive),6.98 µM (inactive),6.49 µM (inactive),24.9 µM (inactive),19.7 µM (inactive),23.1 µM (inactive),14.6 µM (inactive),24.7 µM (inactive),20.7 µM (inactive),–,16.1 µM (inactive),42.9 µM (inactive),21.2 µM (inactive),19.4,17.4 µM (inactive),18.3 µM (inactive),10.2 µM (inactive),20.9 µM (inactive),25.9 µM (inactive),–
COC(C)(C)C1=CCC(C)CC1 (centres undefined),> 100 µM (inactive),24 µM (inactive),–,> 100 µM (inactive),> 100 µM (inactive),> 100 µM (inactive),–,> 100 µM (inactive),66.1 µM (inactive),> 100 µM (inactive),> 100 µM (inactive),> 100 µM (inactive),–,> 100,–,> 100 µM (inactive),> 100 µM (inactive),> 100 µM (inactive),–,> 100 µM (inactive)
CC(C)(c1ccc(Oc2ccc(C#N)c(C#N)c2)cc1)c1ccc(Oc2ccc(C#N)c(C#N)c2)cc1,> 10 µM (inactive),> 10 µM (inactive),> 10 µM (inactive),> 10 µM (inactive),> 10 µM (inactive),> 10 µM (inactive),> 10 µM (inactive),> 10 µM (inactive),1.78 µM (inactive),> 10 µM (inactive),> 10 µM (inactive),> 10 µM (inactive),> 10 µM (inactive),> 10,> 10 µM (inactive),> 10 µM (inactive),> 10 µM (inactive),–,–,–
O=C(O)CCCc1cc2c(s1)-c1cccc3cccc-2c13,26 µM (inactive),23.7 µM (inactive),31.9 µM (inactive),34.2 µM (inactive),39.4 µM (inactive),49 µM (inactive),21.9 µM (inactive),33.3 µM (inactive),50.4 µM (inactive),32.6 µM (inactive),34.8 µM (inactive),24.3 µM (inactive),20.4 µM (inactive),20.2,84.9 µM (inactive),28.9 µM (inactive),21.5 µM (inactive),–,–,–
CC1CC/C(=C\c2ccc(Cl)cc2)c2nc(N)c(C#N)c(-c3ccc(Cl)cc3)c21 (centres undefined),> 100 µM (inactive),< 0.01 µM (active),31.5 µM (inactive),49.4 µM (inactive),63.2 µM (inactive),45.4 µM (inactive),> 100 µM (inactive),70.6 µM (inactive),67 µM (inactive),21.8 µM (inactive),84.9 µM (inactive),26.1 µM (inactive),66.1 µM (inactive),8.47,58.6 µM (inactive),13.4 µM (inactive),19.7 µM (inactive),–,55.1 µM (inactive),13.8 µM (inactive)
Cc1ccc(/C(=C/C=C(C#N)C#N)Sc2cc(Cl)ccc2Cl)cc1,3.22 µM (inactive),–,–,8.57 µM (inactive),2.37 µM (inactive),2.92 µM (inactive),1.01 µM (active),3.71 µM (inactive),17 µM (inactive),4.76 µM (inactive),0.83 µM (active),–,8.75 µM (inactive),3.06,3.02 µM (inactive),16.9 µM (inactive),–,3.4 µM (inactive),2.42 µM (inactive),–
C[Si]1(C)C(c2ccccc2)=CC2C(c3ccccc3)(c3ccccc3)OC21c1ccccc1 (centres undefined),> 100 µM (inactive),29.4 µM (inactive),87.7 µM (inactive),> 100 µM (inactive),–,> 100 µM (inactive),> 100 µM (inactive),> 100 µM (inactive),> 100 µM (inactive),> 100 µM (inactive),28.2 µM (inactive),> 100 µM (inactive),> 100 µM (inactive),> 100,> 100 µM (inactive),33.6 µM (inactive),30.1 µM (inactive),–,–,–
CC/C(CC(=O)CCC(=O)Nc1ccccc1[N+](=O)[O-])=N/NC(=O)C[n+]1ccccc1,> 100 µM (inactive),> 100 µM (inactive),> 100 µM (inactive),> 100 µM (inactive),> 100 µM (inactive),> 100 µM (inactive),> 100 µM (inactive),> 100 µM (inactive),> 100 µM (inactive),> 100 µM (inactive),> 100 µM (inactive),> 100 µM (inactive),> 100 µM (inactive),> 100,> 100 µM (inactive),> 100 µM (inactive),> 100 µM (inactive),–,–,–
C=CC/N=C1\N=C(C)C(C(=O)OCC)S1 (centres undefined),> 100 µM (inactive),> 100 µM (inactive),> 100 µM (inactive),> 100 µM (inactive),> 100 µM (inactive),> 100 µM (inactive),> 100 µM (inactive),> 100 µM (inactive),> 100 µM (inactive),> 100 µM (inactive),> 100 µM (inactive),> 100 µM (inactive),> 100 µM (inactive),> 100,> 100 µM (inactive),> 100 µM (inactive),> 100 µM (inactive),–,–,–
O=c1[nH]nc(-c2ccccc2)n1Nc1ccccc1,> 100 µM (inactive),> 100 µM (inactive),> 100 µM (inactive),> 100 µM (inactive),> 100 µM (inactive),> 100 µM (inactive),> 100 µM (inactive),–,> 100 µM (inactive),> 100 µM (inactive),> 100 µM (inactive),> 100 µM (inactive),> 100 µM (inactive),> 100,> 100 µM (inactive),> 100 µM (inactive),> 100 µM (inactive),> 100 µM (inactive),> 100 µM (inactive),–
CC1CC(=O)NC2CC1C2(C)C (centres undefined),> 100 µM (inactive),> 100 µM (inactive),> 100 µM (inactive),> 100 µM (inactive),> 100 µM (inactive),> 100 µM (inactive),> 100 µM (inactive),–,> 100 µM (inactive),–,–,> 100 µM (inactive),> 100 µM (inactive),> 100,> 100 µM (inactive),> 100 µM (inactive),> 100 µM (inactive),> 100 µM (inactive),–,–
C/C(=N\NC(N)=S)c1ccc(C)c(C)c1,49.9 µM (inactive),68.9 µM (inactive),36.6 µM (inactive),> 100 µM (inactive),66.2 µM (inactive),53.5 µM (inactive),> 100 µM (inactive),> 100 µM (inactive),40.3 µM (inactive),92.5 µM (inactive),> 100 µM (inactive),51.6 µM (inactive),45 µM (inactive),58.5,51.2 µM (inactive),33.3 µM (inactive),34.5 µM (inactive),–,–,–
O=C1CN(c2ccc(Cl)cc2)C(=O)CN1NCNN1CC(=O)N(c2ccc(Cl)cc2)CC1=O,> 100 µM (inactive),> 100 µM (inactive),–,> 100 µM (inactive),> 100 µM (inactive),> 100 µM (inactive),–,> 100 µM (inactive),> 100 µM (inactive),> 100 µM (inactive),> 100 µM (inactive),> 100 µM (inactive),–,> 100,–,> 100 µM (inactive),> 100 µM (inactive),> 100 µM (inactive),–,> 100 µM (inactive)
CC[n+]1[b-](C(C)(C)C)n(/N=C(\C)C(C)(C)C)[b-](C(C)(C)C)[n+]1CC,> 100 µM (inactive),23.6 µM (inactive),71.8 µM (inactive),> 100 µM (inactive),> 100 µM (inactive),> 100 µM (inactive),> 100 µM (inactive),> 100 µM (inactive),> 100 µM (inactive),> 100 µM (inactive),> 100 µM (inactive),> 100 µM (inactive),> 100 µM (inactive),> 100,72.9 µM (inactive),> 100 µM (inactive),–,–,87.1 µM (inactive),> 100 µM (inactive)
CCC1=C(C)C(=O)N/C1=C\c1[nH]c(C)c([C@H](C)CCN)c1C,16 µM (inactive),50.6 µM (inactive),46.6 µM (inactive),17.3 µM (inactive),15.3 µM (inactive),–,15.3 µM (inactive),16.6 µM (inactive),10.1 µM (inactive),17.1 µM (inactive),14.5 µM (inactive),–,18.7 µM (inactive),14.8,17.1 µM (inactive),18.7 µM (inactive),25.6 µM (inactive),16.9 µM (inactive),20 µM (inactive),–
c1ccc2c(c1)[nH]c1nc3cc(-c4ccc5nc6c(nc5c4)[nH]c4ccccc46)ccc3nc12,> 100 µM (inactive),–,–,> 100 µM (inactive),> 100 µM (inactive),> 100 µM (inactive),> 39.9 µM (inactive),> 93.5 µM (inactive),> 100 µM (inactive),> 100 µM (inactive),> 69.7 µM (inactive),> 79.1 µM (inactive),> 100 µM (inactive),–,> 100 µM (inactive),> 100 µM (inactive),38 µM (inactive),> 100 µM (inactive),–,> 100 µM (inactive)
